Target: T1, Recombinant (1-346) HPK1 (h) (Homo sapiens, UniProt Q92918)
T1 construct: Recombinant (1-346) HPK1 (h) is incubated with 8 mM MOPS pH 7.0
T1 sequence (Q92918 1-346): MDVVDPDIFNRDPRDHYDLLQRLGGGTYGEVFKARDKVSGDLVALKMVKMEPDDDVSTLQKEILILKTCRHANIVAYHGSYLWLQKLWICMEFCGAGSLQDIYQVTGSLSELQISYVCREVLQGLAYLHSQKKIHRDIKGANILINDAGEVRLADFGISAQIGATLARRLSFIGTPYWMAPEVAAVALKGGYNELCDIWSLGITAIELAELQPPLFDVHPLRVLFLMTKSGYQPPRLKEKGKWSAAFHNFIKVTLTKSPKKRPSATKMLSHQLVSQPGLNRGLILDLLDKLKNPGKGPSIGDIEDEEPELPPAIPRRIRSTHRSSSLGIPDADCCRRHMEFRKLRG
Assay: HPK1 human STE kinase enzymatic radiometric assay
Type: biochemical
Details: read-out: HPK1 IC50 nM Range
Outline: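 Recombinant HPK1 (1-346) incubated 40 min at RT with 0.33 mg/mL myelin basic protein and [gamma-33P]-ATP in 8 mM MOPS pH 7.0, 0.2 mM EDTA, 10 mM Mg acetate; reaction started with Mg/ATP. Stopped with 0.5% phosphoric acid, spotted on P30 filtermat, washed, scintillation counted. Compounds tested as 9-point 3-fold dilutions.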

IC50	SMILES
0.1 to 10 nM	Cc1c[nH]c(=O)c2ccc(-c3nc(-c4ccc(N5CCN(C6CCC6)CC5)cc4)c(F)nc3N)cc12 [Example I-139, 6-(3-amino-6-(4-(4-cyclobutylpiperazin-1-yl)phenyl)-5-fluoropyrazin-2-yl)-4-methylisoquinolin-1(2H)-one]
0.1 to 10 nM	CN(C)Cc1cc(-c2nc(-c3ccc4c(=O)[nH]cc(F)c4c3)c(N)nc2F)ccc1O [Example I-305, 6-(3-amino-6-(3-((dimethylamino)methyl)-4-hydroxyphenyl)-5-fluoropyrazin-2-yl)-4-fluoroisoquinolin-1(2H)-one]
0.1 to 10 nM	CN(C)Cc1cc(-c2nc(-c3ccc4c(=O)[nH]cc(F)c4c3)c(N)nc2F)ccc1N1CCOCC1 [Example I-89, 6-(3-amino-6-(3-((dimethylamino)methyl)-4-morpholinophenyl)-5-fluoropyrazin-2-yl)-4-fluoroisoquinolin-1(2H)-one]
0.1 to 10 nM	CN(C)Cc1cc(-c2nc(-c3ccc4c(c3)CCNC4=O)c(N)nc2F)ccc1N1CCSCC1 [Example I-128, 6-(3-amino-6-(3-((dimethylamino)methyl)-4-thiomorpholinophenyl)-5-fluoropyrazin-2-yl)-3,4-dihydroisoquinolin-1(2H)-one]
11 to 100 nM	Nc1nc(F)c(-c2ccc(OC3CCOCC3)c(CN3CCC3)c2)nc1-c1ccc2c(c1)CCNC2=O [Example I-208, 6-(3-amino-6-(3-(azetidin-1-ylmethyl)-4-((tetrahydro-2H-pyran-4-yl)oxy)phenyl)-5-fluoropyrazin-2-yl)-3,4-dihydroisoquinolin-1(2H)-one]
0.1 to 10 nM	C[C@@H]1CCCN1Cc1cc(-c2nc(-c3ccc4c(c3)C(F)(F)CNC4=O)c(N)nc2F)ccc1C1CCOCC1 [Example I-232, (R)-6-(3-amino-5-fluoro-6-(3-((2-methylpyrrolidin-1-yl)methyl)-4-(tetrahydro-2H-pyran-4-yl)phenyl)pyrazin-2-yl)-4,4-difluoro-3,4-dihydroisoquinolin-1(2H)-one]
0.1 to 10 nM	C[C@@H]1CN(c2ccc(-c3nc(-c4cc5c(cc4F)C(=O)NCC5)c(N)nc3F)cc2)C[C@H](C)N1C [Example I-58, 6-(3-amino-5-fluoro-6-(4-((3R,5S)-3,4,5-trimethylpiperazin-1-yl)phenyl)pyrazin-2-yl)-7-fluoro-3,4-dihydroisoquinolin-1(2H)-one]
0.1 to 10 nM	Nc1nc(F)c(-c2ccc(C3CCOCC3)c(CN3CCCC3)c2)nc1-c1ccc2c(c1)CCNC2=O [Example I-147, 6-(3-amino-5-fluoro-6-(3-(pyrrolidin-1-ylmethyl)-4-(tetrahydro-2H-pyran-4-yl)phenyl)pyrazin-2-yl)-3,4-dihydroisoquinolin-1(2H)-one]
11 to 100 nM	C[C@@H]1CCCN1Cc1cc(-c2nc(-c3ccc4c(=O)[nH]cc(Cl)c4c3)c(N)nc2F)ccc1C1CCOCC1 [Example I-227, (R)-6-(3-amino-5-fluoro-6-(3-((2-methylpyrrolidin-1-yl)methyl)-4-(tetrahydro-2H-pyran-4-yl)phenyl)pyrazin-2-yl)-4-chloroisoquinolin-1(2H)-one]
11 to 100 nM	Cc1nc2cc(-c3nc(-c4ccc(N5C[C@@H](C)O[C@@H](C)C5)c(CN(C)C)c4)c(F)nc3N)ccc2c(=O)[nH]1 [Example I-194, 7-(3-amino-6-(3-((dimethylamino)methyl)-4-((2R,6S)-2,6-dimethylmorpholino)phenyl)-5-fluoropyrazin-2-yl)-2-methylquinazolin-4(3H)-one]
0.1 to 10 nM	Cc1[nH]c(=O)c2ccc(-c3nc(-c4ccc(N5CCOCC5)c(CN(C)C)c4)c(F)nc3N)cc2c1F [Example I-101, 6-(3-amino-6-(3-((dimethylamino)methyl)-4-morpholinophenyl)-5-fluoropyrazin-2-yl)-4-fluoro-3-methylisoquinolin-1(2H)-one]
11 to 100 nM	COc1ccc(-c2nc(-c3ccc4c(c3)CCNC4=O)c(N)nc2F)cc1CN(C)C [Example I-250, 6-(3-amino-6-(3-((dimethylamino)methyl)-4-methoxyphenyl)-5-fluoropyrazin-2-yl)-3,4-dihydroisoquinolin-1(2H)-one]
0.1 to 10 nM	Cc1c[nH]c(=O)c2ccc(-c3nc(-c4ccc(N5CCN(CCCC(F)F)CC5)cc4)c(F)nc3N)cc12 [Example I-73, 6-(3-amino-6-(4-(4-(4,4-difluorobutyl)piperazin-1-yl)phenyl)-5-fluoropyrazin-2-yl)-4-methylisoquinolin-1(2H)-one]
0.1 to 10 nM	COC1CN(Cc2cc(-c3nc(-c4ccc5c(c4)CCNC5=O)c(N)nc3F)ccc2N2CCOCC2)C1 [Example I-188, 6-(3-amino-5-fluoro-6-(3-((3-methoxyazetidin-1-yl)methyl)-4-morpholinophenyl)pyrazin-2-yl)-3,4-dihydroisoquinolin-1(2H)-one]
11 to 100 nM	CCN(C)Cc1cc(-c2nc(-c3ccc4c(c3)CCNC4=O)c(N)nc2F)cc(C)c1OC [Example I-297, 6-(3-amino-6-(3-((ethyl(methyl)amino)methyl)-4-methoxy-5-methylphenyl)-5-fluoropyrazin-2-yl)-3,4-dihydroisoquinolin-1(2H)-one]
11 to 100 nM	Cc1[nH]c(=O)c2ccc(-c3nc(-c4ccc(N5CC6(CN(C)CCO6)C5)cc4)c(F)nc3N)cc2c1F [Example I-123, 6-(3-amino-5-fluoro-6-(4-(8-methyl-5-oxa-2,8-diazaspiro[3.5]nonan-2-yl)phenyl)pyrazin-2-yl)-4-fluoro-3-methylisoquinolin-1(2H)-one]
0.1 to 10 nM	COCCN(C)Cc1cc(-c2nc(-c3cc4c(cc3F)C(=O)NCC4)c(N)nc2F)ccc1C1CCOCC1 [Example I-175, 6-(3-amino-5-fluoro-6-(3-(((2-methoxyethyl)(methyl)amino)methyl)-4-(tetrahydro-2H-pyran-4-yl)phenyl)pyrazin-2-yl)-7-fluoro-3,4-dihydroisoquinolin-1(2H)-one]
0.1 to 10 nM	CCN(C)Cc1cc(-c2nc(-c3ccc4c(c3)CCNC4=O)c(N)nc2F)ccc1C1CCOCC1 [Example I-163, 6-(3-amino-6-(3-((ethyl(methyl)amino)methyl)-4-(tetrahydro-2H-pyran-4-yl)phenyl)-5-fluoropyrazin-2-yl)-3,4-dihydroisoquinolin-1(2H)-one]
11 to 100 nM	CN(C)[C@@H]1CCOc2ccc(-c3nc(-c4ccc5c(=O)[nH]ccc5c4)c(N)nc3F)cc21 [Example I-286, (R)-6-(3-amino-6-(4-(dimethylamino)chroman-6-yl)-5-fluoropyrazin-2-yl)isoquinolin-1(2H)-one]
11 to 100 nM	Nc1nc(F)c(-c2ccc(N3CCOCC3)c(CN3CCC3)c2F)nc1-c1ccc2c(c1)CCNC2=O [Example I-243, 6-(3-amino-6-(3-(azetidin-1-ylmethyl)-2-fluoro-4-morpholinophenyl)-5-fluoropyrazin-2-yl)-3,4-dihydroisoquinolin-1(2H)-one]
0.1 to 10 nM	CN(C)[C@@H]1CCOc2ccc(-c3nc(-c4ccc5c(c4)CCNC5=O)c(N)nc3F)cc21 [Example I-287, (R)-6-(3-amino-6-(4-(dimethylamino)chroman-6-yl)-5-fluoropyrazin-2-yl)-3,4-dihydroisoquinolin-1(2H)-one]
0.1 to 10 nM	Cc1[nH]c(=O)c2ccc(-c3nc(-c4ccc(N5CCN(CC6CC6)CC5)cc4)c(F)nc3N)cc2c1Cl [Example I-122, 6-(3-amino-6-(4-(4-(cyclopropylmethyl)piperazin-1-yl)phenyl)-5-fluoropyrazin-2-yl)-4-chloro-3-methylisoquinolin-1(2H)-one]
0.1 to 10 nM	CN(C)Cc1cc(-c2nc(-c3cc(F)c4c(c3)CCNC4=O)c(N)nc2F)ccc1OCC1CCOCC1 [Example I-180, 6-(3-amino-6-(3-((dimethylamino)methyl)-4-((tetrahydro-2H-pyran-4-yl)methoxy)phenyl)-5-fluoropyrazin-2-yl)-8-fluoro-3,4-dihydroisoquinolin-1(2H)-one]
11 to 100 nM	CN(C)Cc1c(N2CCOCC2)ccc(-c2nc(-c3cc4c(cc3F)C(=O)NCC4)c(N)nc2F)c1F [Example I-241, 6-(3-amino-6-(3-((dimethylamino)methyl)-2-fluoro-4-morpholinophenyl)-5-fluoropyrazin-2-yl)-7-fluoro-3,4-dihydroisoquinolin-1(2H)-one]
0.1 to 10 nM	CO[C@H]1CCN(Cc2cc(-c3nc(-c4cc5c(cc4F)C(=O)NCC5)c(N)nc3F)ccc2N2CCOCC2)C1 [Example I-157, (S)-6-(3-amino-5-fluoro-6-(3-((3-methoxypyrrolidin-1-yl)methyl)-4-morpholinophenyl)pyrazin-2-yl)-7-fluoro-3,4-dihydroisoquinolin-1(2H)-one]
11 to 100 nM	CCN(C)Cc1cc(-c2nc(-c3ccc4c(c3)C(F)(F)CNC4=O)c(N)nc2F)ccc1C1=CCOCC1 [Example I-225, 6-(3-amino-6-(4-(3,6-dihydro-2H-pyran-4-yl)-3-((ethyl(methyl)amino)methyl)phenyl)-5-fluoropyrazin-2-yl)-4,4-difluoro-3,4-dihydroisoquinolin-1(2H)-one]
0.1 to 10 nM	Cc1nc2cc(-c3nc(-c4ccc(N5CCN(C(C)C)CC5)cc4)c(F)nc3N)c(F)cc2c(=O)[nH]1 [Example I-63, 7-(3-amino-5-fluoro-6-(4-(4-isopropylpiperazin-1-yl)phenyl)pyrazin-2-yl)-6-fluoro-2-methylquinazolin-4(3H)-one]
